The test has as its system ASMT gene. Put plainly: ASMT gene expression level in epidermal keratinocytes by quantitative PCR. The test is classed as cell-based. The procedure:
Commercially available normal adult skin-derived keratinocytes (Kurabo) were inoculated into a T75 flask at 5×10^5 cells/flask, and were cultured in a keratinocyte medium (Humedia-KG2, Kurabo) at 37° C. in a 5% CO2 atmosphere until they reached semiconfluency. The resulting cells were used as seed cells. The keratinocytes were collected by trypsinization, and inoculated into a 24-well plate at 2×10^4 cells/well, and cultured in a keratinocyte medium (Humedia-KG2, Kurabo) at 37° C., 5% CO2 atmosphere until they reached confluency.
To the epidermal keratinocytes having reached confluency was added the ectoin sample at an appropriate dilution ratio so that the ectoin concentration in the medium was 1 mM, followed by the continuation of the culture at 37° C. in a 5% CO2 atmosphere. As a control, a medium not containing the ectoin sample was used to carry out the culture.
Ten hours after the addition of ectoin, the medium was removed. Then the cells were lysed and RNA was extracted therefrom using a commercially available RNA extraction reagent (RNeasy Mini Kit, Qiagen).
Using the thus extracted RNA as a template, quantitative PCR was performed with a commercially available quantitative PCR reagent (BrilliantII QRT-PCR kit, Agilent) and a quantitative PCR device (Mx-3005P, Agilent), by which the expression level of the ASMT gene was determined. At the same time, the expression level of the RPLP0 gene whose expression level was almost constant was also determined as an internal standard. Commercially available PCR primer set (Takara Bio Inc.) specific to each gene was used.
To the epidermal keratinocytes cultured in the same manner as in Example 1 was added the ectoin sample at appropriate dilution ratios so that the ectoin concentration in the medium was 0.005 wt %, 0.01 wt %, 0.02 wt %, 0.05 wt %, 0.1 wt %, followed by the continuation of the culture at 37° C. in a 5% CO2 atmosphere.
To the epidermal keratinocytes cultured in the same manner as in Example 1 was added the respective samples at appropriate dilution ratios so that the concentration in the medium was respectively 1 mM (ectoine), 100 μM (glycosyl hesperidin), 0.1% (green tea extract), and 0.1% (oolong tea extract). These concentrations are all normal concentrations to be used in external formulations. After the addition of the samples, the cells were cultured, from which the ASMT expression level was evaluated in the same manner as in Example 1. As a control, a medium not containing any sample was used to carry out the culture.

On to `CC1=N[C@H](C(=O)O)CCN1` [ectoin, (4S)-2-methyl-1,4,5,6-tetrahydropyrimidine-4-carboxylic acid], for which the “ASMT gene expression level relative to control (control set to 1)” value (ectoin 1 mM in medium, 10 hours, normal adult skin-derived keratinocytes, versus medium containing no ectoin (FIG. 1)) is on record as “very high ASMT expression promoting action”. Where the note is “ectoin 0.005-0.1 wt % in medium, 10 hours, keratinocytes (FIG. 2)”, the “Concentration-dependency of ASMT expression promoting action” value is given as “dependent on the concentration thereof”. Further, where the note is “ectoine 1 mM versus glycosyl hesperidin 100 μM, green tea extract 0.1%, oolong tea extract 0.1%, keratinocytes (FIG. 3)”, the “ASMT gene expression level (ASMT/RPLP0) in comparison with various antioxidants” value is “higher than that of green tea extract, oolong tea extract, and glycosyl hesperidin”. Moreover, the “ASMT gene expression level (ASMT/RPLP0)” value (ectoine 0.02 wt % in medium, 10 hours, keratinocytes, compared with 0.005 wt % and 0.01 wt % (FIG. 2)) is given as “higher than the cases of lower concentrations of ectoine (0.005 wt %, 0.01 wt %)”.

For the origin of these results see patent US20210154119A1, “ASMT EXPRESSION PROMOTER” (Shiseido Company, Ltd., priority 2018, published 2021).
